{"source": "patent US11478489B2", "about": "“Selective accretion of cytoprotectant in radiation-sensitive tissues and uses thereof” (WILLIAM MARSH RICE UNIVERSITY, priority 2017, dated 2022)", "key": {"[1]": {"experiment": "Methylene blue gut assay (GI transit time)", "format": "in vivo, C57BL/6 mice", "procedure": "In order to determine the rate at which oral solutions such as WR-2721 traverse the digestive tract of 8-week old C57BL/6 mice following oral gavage, a 1% (w/v) solution of methylene blue in PBS was gavaged in a total volume of 0.1 ml. Mice were then euthanized at 5, 10, 15, 25 and 30 min after the dye administration and the progress of the methylene blue stain through the intestines was examined. Mice were anesthetized with isoflurane 8 min prior to euthanasia following the same procedure used prior to irradiation (8 min at 3% isoflurane and oxygen flow rate of 2 L/min) to account for any potential changes it might have on GI transit time. Methylene blue dye progress was examined in situ for comparison with the location of our standard radiation field and then the intestine was excised so that distance traveled could be determined."}, "[2]": {"system": "C57BL/6 mice given lethal fractionated radiation", "experiment": "Survival study after fractionated SBRT to the upper abdomen", "format": "in vivo, C57BL/6JLaw mice", "details": "oral 500 mg/kg 25 min prior to each of 5 daily fractions of 12.5 Gy, 10 mm field; all vehicle controls died in fewer than 10 days", "procedure": "(§1) For survival studies, SBRT was given for 5 consecutive days 25 min after administration of vehicle or WR-2721 using the XRAD 225Cx small animal irradiator (Precision X-Ray; North Branford, Conn.) fitted with a conformal collimator to produce a circular 10 mm diameter radiation field. Mice were anesthetized with isoflurane gas for CT imaging and irradiation. Each mouse was imaged using the XRAD 225Cx cone beam CT prior to irradiation in order to align the radiation field so that the cranial edge of the field was located 5 mm below the diaphragm at the isocenter of the mouse. This field exposed the pancreas, duodenum, jejunum and liver to radiation. Radiation was administered anterior-posterior-posterio-anterior (AP-PA).\n(§2) Mice were treated with WR-2721 or vehicle by intraperitoneal (IP) injection or oral gavage followed by SBRT and monitored on a daily basis. […] Time to euthanasia and percent survival were assessed.\nIt was hypothesized that the maximal benefit of radioprotection would likely occur between 12 and 13 Gy at 12.5 Gy×5 fractions (62.5 Gy; D2Eq=117.2 Gy). […] Remarkably, 100% of mice that received oral WR-2721 lived beyond 30 days, while all vehicle controls died in fewer than 10 days FIG. 3D, log rank p=0.0035)."}, "[3]": {"details": "mouse, in vivo, 25 min", "procedure": "Next, the specificity of WR-1065 enrichment in intestines was determined in a genetically engineered mouse model. Kras^LSL/+; Trp53^FL/+; Ptfla^Cre/+ (KPC) mice that develop spontaneous pancreatic cancer were bred, and then backcrossed to a C57BL/6 background over 10 generations to eliminate the confounding issue of genetic variance from […] mice. These autochthonous tumors are thought to recapitulate the desmoplasia observed in human tumors that may make these tumors more aggressive. To be an effective an effective clinical radioprotectant, WR-1065 should not accumulate in tumors. Thus, plasma, liver, duodenum, jejunum and pancreatic tumors were collected 25 min after oral administration of 500 mg/kg (HED=41 mg/kg), or IP administration of 250 mg/kg WR-2721 (HED=20 mg/kg) to determine the concentrations of the WR-1065 (see schema in FIG. 4D)."}, "[4]": {"system": "KPC mice with spontaneous pancreatic cancer", "experiment": "Survival of tumor-bearing KPC mice after SBRT", "format": "in vivo, Kras LSL/+; Trp53 FL/+; Ptf1a Cre/+ (KPC) mice", "details": "SBRT 12.5 Gy x 5 + oral WR-2721 25 min prior to each fraction; VEH and SBRT+VEH 15 days", "procedure": "as §1, §2\nFurther confirmation is illustrated in FIG. 6. KPC Mice were enrolled onto the study shortly after diagnosis and were treated to vehicle alone, SBRT with vehicle or SBRT with oral WR-2721. The SBRT field was 10 mm given AP/PA to the tumor and the dose was 12.5 Gy per day for 5 consecutive days for a total dose of 62.5 Gy (EQD2=117.2 Gy; α/β10=140.6). The tumors were identified by micro CT and ultrasound on a daily basis without fiducials. […]"}, "[5]": {"system": "duodenal and jejunal crypts", "experiment": "Microcolony assay (Withers-Elkind), surviving crypts after 12 Gy whole body irradiation", "format": "in vivo, C3Hf/KamLaw mice", "details": "jejunum, oral, 30 min prior to 12 Gy WBI; no further benefit at 1000 mg/kg", "procedure": "(§3) WR-2721 Trihydrate (Toronto Research Chemicals Inc; North York, Ontario, Canada) was diluted in PBS (with 0.2 conversion factor to adjust for trihydrate) and was administered by IP injection at 25 or 250 or 500 mg/kg or by oral gavage at doses […] 150 to 1000 mg/kg in a volume of 0.1 ml.\nFor the microcolony assay, a single dose of 12 Gy whole body irradiation (WBI) was administered 15 min or 30 min after WR-2721 treatment using a Pantak 300 x-ray unit (Pantak; East Haven, Conn.), with 300 kVp X-rays at a dose rate of 1.84 Gy/min. Un-anesthetized mice were loosely restrained in a well ventilated 15×15×2 cm Lucite box during WBI.\nViable jejunal crypts were quantified following a single dose of 12 Gy WBI+/− a single oral dose of WR-2721 given at 15 min or 30 min prior to radiation using the microcolony assay. Mice were euthanized 3 days and 14 hours after receiving WBI, and segments of jejunum and duodenum were resected and fixed in 10% neutral buffered formalin. Tissue was then embedded in paraffin, and four transverse slices of jejunum and duodenum were stained with hematoxylin and eosin per mouse. The number of regenerating crypts per transverse section was scored microscopically and averaged over the 4 sections per animal for each tissue type. All slides were scored by a single observer blinded to treatment group. […]"}, "[6]": {"experiment": "LC/MS-MS analysis of WR-1065 plasma and tissue concentrations, C57BL/6 mice", "details": "WR-2721 500 mg/kg oral, 25 min", "quoted_text": "Mice were treated with either 500 mg/kg of WR-2721 by oral gavage, or 250 mg/kg by IP injection. After 17 min had elapsed, the mice were anesthetized with isoflurane gas (3% isoflurane, oxygen flow rate of 2 L/min). After 8 min of anesthesia, whole blood and tissues were collected. The total amount of time between treatment and tissue collection was 25 min.\nWhile under isoflurane anesthesia, the whole blood sample was collected via cardiac puncture and was immediately transferred to a BD Microtainer® blood collection tube containing K2-EDTA (Becton Dickinson; Franklin Lakes, N.J.). The K2-EDTA whole blood was then processed to plasma by centrifugation at 3,000 g for 4 min. After processing, a volume of the plasma supernatant (typically 200 μL) was removed and immediately transferred to a fresh 1.4 mL Matrix polypropylene (PP) tube (Thermo Fisher Scientific; Waltham, Mass.) containing a 50 μL aliquot of 10% trichloroacetic acid (TCA). After vortexing, the TCA-treated plasma samples were stored on ice for transport from the vivarium to the laboratory for further processing. The TCA-treated plasma samples were then centrifuged at 17,000 g for 5 min, and the supernatant was transferred to a fresh 1.4 mL Matrix tube, and the samples were either extracted and analyzed immediately or capped for −80° C. storage until analysis. […]"}, "[7]": {"details": "given intravenously; cited from earlier work"}, "[8]": {"experiment": "Tolerability: body weight and food consumption as a model of nausea", "format": "in vivo, C57BL/6JLaw mice", "procedure": "as §3\nSevere nausea is a common and worrisome side effect of systemic WR-2721, and the concern that oral administration of the drug might exacerbate this side effect was examined. […] Thus, body weight and food consumption was closely monitored as a model of nausea in mice. Based on the results of the microcolony assay (FIG. 1), 500 mg/kg were used as the dose for toxicity testing. Mice were treated daily for 5 consecutive days with vehicle or WR-2721 administered IP or Per os (PO), and body weight and food consumption were monitored daily (FIGS. 2A and 2B, respectively). There was only one vehicle control group that was subjected to both gavage and intraperitoneal injections to more stringently control for the stress of drug administration from either IP or PO route. Despite this intensive intervention, the vehicle control animals maintained their initial bodyweight and food consumption throughout the study (FIGS. 2A and 2B)."}, "[9]": {"details": "oral 500 mg/kg daily for 5 consecutive days"}}, "note": "Read-outs that look alike come from different tables or passages of the source."}
{"smiles": "CN(C)c1ccc2nc3ccc(=[N+](C)C)cc-3sc2c1", "note": "[Methylene blue, methylene blue]", "values": [{"measurement": "time at which dye was in the jejunum", "setting": "[1]; C57BL/6, mouse, in vivo, po", "result": "15 to 30", "unit": "min"}, {"measurement": "time to reach the duodenum", "setting": "[1]; C57BL/6, mouse, in vivo, po", "result": "≤ 10", "unit": "min"}, {"measurement": "dye front within 30 min", "setting": "[1]; oral gavage, 1% (w/v) in PBS, 0.1 ml", "result": "had not reached the cecum or large intestine"}]}
{"smiles": "NCCCNCCSP(=O)(O)O", "note": "[WR-2721, S-2-(3-aminopropylamino)ethyl dihydrogen phosphorothioate]", "values": [{"measurement": "mice that lived beyond 30 days", "setting": "[2]", "result": 100, "unit": "%"}, {"measurement": "WR-1065 concentration in duodenum", "setting": "[3]; ip, 250 mg/kg", "result": "236.2±8.6", "unit": "pmol WR-1065/mg tissue"}, {"measurement": "WR-1065 concentration in jejunum", "setting": "[3]; ip, 250 mg/kg", "result": "275.5±5.0", "unit": "pmol WR-1065/mg tissue"}, {"measurement": "WR-1065 concentration in liver", "setting": "[3]; ip, 250 mg/kg", "result": "420±69.8", "unit": "pmol WR-1065/mg tissue"}, {"measurement": "WR-1065 concentration in pancreatic tumors", "setting": "[3]; ip, 250 mg/kg", "result": "248±30.2", "unit": "pmol WR-1065/mg tissue"}, {"measurement": "WR-1065 concentration in duodenum", "setting": "[3]; po, 500 mg/kg", "result": "200.6±23.3", "unit": "pmol WR-1065/mg tissue"}, {"measurement": "WR-1065 concentration in jejunum", "setting": "[3]; po, 500 mg/kg", "result": "757.7±26.8", "unit": "pmol WR-1065/mg tissue"}, {"measurement": "WR-1065 concentration in liver", "setting": "[3]; po, 500 mg/kg", "result": "59.9±26.8", "unit": "pmol WR-1065/mg tissue"}, {"measurement": "WR-1065 concentration in tumor", "setting": "[3]; po, 500 mg/kg", "result": "24.5±1.9", "unit": "pmol WR-1065/mg tissue"}, {"measurement": "enrichment of the drug in the intestines compared to tumor", "setting": "[3]; po, 500 mg/kg", "result": "10-40 fold"}, {"measurement": "median survival", "setting": "[4]", "result": 40, "unit": "days"}, {"measurement": "dose at which radiation protection was maximized", "setting": "[5]", "result": 500, "unit": "mg/kg"}, {"measurement": "enhancement of WR-1065 within duodenum and jejunum compared to liver", "setting": "[6]", "result": "six- to twelve-fold"}, {"measurement": "side effects", "setting": "[7]", "result": "severe nausea and hypotension"}, {"measurement": "day by which euthanasia was required", "setting": "[8]; intraperitoneal 500 mg/kg daily", "result": "≤ 4", "unit": "days"}, {"measurement": "body weight and food consumption", "setting": "[8]; intraperitoneal 500 mg/kg daily, 5 consecutive days planned", "result": "dramatic decrease in food consumption and body weight"}, {"measurement": "body weight and food consumption", "setting": "[8]; [9]", "result": "modest initial decrease in body weight and food consumption"}, {"measurement": "time to complete recovery of body weight after stopping treatment", "setting": "[8]; [9]", "result": "≤ 2", "unit": "days"}]}
